Data on four compounds can be found in ChEMBL document CHEMBL3217727, “Berberine azoles as antimicrobial agents: synthesis, biological evaluation and their interactions with human serum albumin” (Medchemcomm, 2013).

Structures are written as SMILES. ≈ marks a conversion by molar mass, not a printed value.

The test system of one data set is Saccharomyces cerevisiae. The data set can be described thus: Antimicrobial activity against Saccharomyces cerevisiae ATCC 9763 after 24 hrs by microbroth dilution method. The class given is functional. The following applies: ATCC 9763, 24 h. (In general: In broth dilution the organism is exposed to a series of concentrations in liquid medium.)
Data set [1] relates to Staphylococcus aureus. The data set is described as follows: Antimicrobial activity against Staphylococcus aureus ATCC 25923 after 24 hrs by microbroth dilution method. In kind it is functional. The following applies: ATCC 25923, 24 h.
A further data set relates to Candida. The data set is described as follows: Antimicrobial activity against Candida mycoderma after 24 hrs by microbroth dilution method. In kind it is functional.
In data set [2] the test system is Staphylococcus aureus. The data set can be described thus: Antimicrobial activity against methicillin-resistant Staphylococcus aureus N315 after 24 hrs by microbroth dilution method. The class given is functional. The following applies: N315, 24 h.
The subject of data set [3] is Proteus vulgaris. The data set is described as follows: Antimicrobial activity against Proteus vulgaris ATCC 8427 after 24 hrs by microbroth dilution method. The class given is functional. The following applies: ATCC 8427, 24 h.
The test system of another data set is Candida albicans. The data set is described as follows: Antimicrobial activity against Candida albicans ATCC 90029 after 24 hrs by microbroth dilution method. In kind it is functional. The following applies: ATCC 90029, 24 h.
Data set [4] deals with Shigella dysenteriae. The data set can be described thus: Antimicrobial activity against Shigella dysenteriae ATCC 51252 after 24 hrs by microbroth dilution method. The class given is functional. The following applies: ATCC 51252, 24 h.
The next data set relates to Escherichia coli. The data set can be described thus: Antimicrobial activity against Escherichia coli […] after 24 hrs by microbroth dilution method. In kind it is functional.
For data set [5], the system named is Shigella dysenteriae. The data set can be described thus: Ratio of chloromycin MIC to compound MIC for Shigella dysenteriae ATCC 51252. In kind it is functional.
In data set [6] the test system is Shigella dysenteriae. The data set is described as follows: Ratio of berberine MIC to compound MIC for Shigella dysenteriae ATCC 51252. In kind it is functional.
A further data set relates to Micrococcus luteus. The data set is described as follows: Antimicrobial activity against Micrococcus luteus ATCC 4698 after 24 hrs by microbroth dilution method. The class given is functional. To be noted: NCTC 2665, 24 h.
The test system of another data set is Cyberlindnera jadinii. The data set is described as follows: Antimicrobial activity against Candida utilis ATCC 9950 after 24 hrs by microbroth dilution method. The class given is functional. The following applies: Williopsis jadinii, ATCC 9950, 24 h.
The next data set relates to Bacillus spizizenii. The data set can be described thus: Antimicrobial activity against Bacillus subtilis ATCC 6633 after 24 hrs by microbroth dilution method. In kind it is functional. To be noted: ATCC 6633, 24 h.
A further data set concerns Pseudomonas aeruginosa. The data set can be described thus: Antimicrobial activity against Pseudomonas aeruginosa ATCC 27853 after 24 hrs by microbroth dilution method. The class given is functional. To be noted: ATCC 27853, 24 h.
The target in the next data set is Albumin (Homo sapiens, UniProt P02768). The data set is described as follows: Binding affinity to human serum albumin at 0.2 to 1.8 10^-5 mol/L at pH 7.4 at 294 K by UV-vis spectroscopic analysis. The class given is ADME. The following applies: isolated protein.
Data set [7] concerns Proteus vulgaris. The data set can be described thus: Ratio of berberine MIC to compound MIC for Proteus vulgaris ATCC 8427. In kind it is functional.
The subject of data set [8] is Proteus vulgaris. The data set can be described thus: Ratio of norfloxacin MIC to compound MIC for Proteus vulgaris ATCC 8427. In kind it is functional.
Data set [9] concerns Proteus vulgaris. The data set can be described thus: Ratio of chloromycin MIC to compound MIC for Proteus vulgaris ATCC 8427. In kind it is functional.

Usually MIC80 stands for an inhibitory concentration at the 80% level, which refers to growth in some studies and to a panel of isolates in others. Low readings indicate higher susceptibility, high ones lower susceptibility. A word on the MIC: it is the lowest concentration found to suppress growth. Low values mean inhibition by little substance, high ones a need for much substance.

Albumin, sequence (P02768 whole entry): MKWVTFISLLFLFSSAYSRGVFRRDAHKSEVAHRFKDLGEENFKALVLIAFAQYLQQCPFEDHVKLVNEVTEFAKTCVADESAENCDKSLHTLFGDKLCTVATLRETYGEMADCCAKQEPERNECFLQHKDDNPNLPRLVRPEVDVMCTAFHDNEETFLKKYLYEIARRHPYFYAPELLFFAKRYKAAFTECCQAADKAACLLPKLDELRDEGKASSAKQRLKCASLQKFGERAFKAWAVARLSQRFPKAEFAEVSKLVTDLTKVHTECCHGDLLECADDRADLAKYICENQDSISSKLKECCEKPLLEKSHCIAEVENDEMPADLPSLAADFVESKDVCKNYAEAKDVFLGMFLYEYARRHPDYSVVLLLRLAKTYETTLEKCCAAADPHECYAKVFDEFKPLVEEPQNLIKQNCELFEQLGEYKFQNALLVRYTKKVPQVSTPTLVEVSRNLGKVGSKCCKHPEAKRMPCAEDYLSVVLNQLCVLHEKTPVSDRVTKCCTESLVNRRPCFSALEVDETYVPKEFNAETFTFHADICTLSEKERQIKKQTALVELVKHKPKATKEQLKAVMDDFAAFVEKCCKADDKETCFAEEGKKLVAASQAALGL

As for `COc1ccc2cc3[n+](cc2c1OCCN(CCn1cnc2cc(C)c(C)cc21)Cc1ccc(F)cc1F)CCc1cc2c(cc1-3)OCO2.[Cl-]`, the MIC80 amounted to 16 µg/mL in the data set with Saccharomyces cerevisiae, 16 µg/mL in the data set with Candida, 32 µg/mL in the data set on Candida albicans and 16 µg/mL with Cyberlindnera jadinii. Also, the MIC in the data set with Staphylococcus aureus [1] came to 32 µg/mL; in the data set with Staphylococcus aureus [2] it was 32 µg/mL; against Proteus vulgaris [3] it was 8 µg/mL; in the data set on Shigella dysenteriae [4], 4 µg/mL; against Escherichia coli it was 32 µg/mL; against Micrococcus luteus it was 16 µg/mL. For the same compound, the MIC in the data set with Bacillus spizizenii is 16 µg/mL; against Pseudomonas aeruginosa, 8 µg/mL. Also, the Ratio is 8 in the data set with Shigella dysenteriae [5] and 64 in the data set with Shigella dysenteriae [6].
As for `COc1ccc2cc3[n+](cc2c1OCCN(CCn1cnc2ccccc21)Cc1ccc(F)cc1F)CCc1cc2c(cc1-3)OCO2.[Cl-]`, the MIC80 in the data set on Saccharomyces cerevisiae was 32 µg/mL; in the data set with Candida, 32 µg/mL; against Candida albicans, 32 µg/mL; against Cyberlindnera jadinii, 16 µg/mL. The MIC in the data set with Staphylococcus aureus [1] is 16 µg/mL; in the data set with Staphylococcus aureus [2], 32 µg/mL; in the data set with Proteus vulgaris [3], 32 µg/mL; against Shigella dysenteriae [4], 8 µg/mL; with Escherichia coli it was 32 µg/mL; against Micrococcus luteus, 16 µg/mL. The MIC against Bacillus spizizenii was 32 µg/mL; against Pseudomonas aeruginosa it was 16 µg/mL.
As for `COc1ccc2cc3[n+](cc2c1OCCN(CCn1cncn1)Cc1ccc(F)cc1F)CCc1cc2c(cc1-3)OCO2.[Cl-]`, the MIC80 with Saccharomyces cerevisiae came out at 32 µg/mL; with Candida, 2 µg/mL; against Candida albicans, 4 µg/mL; in the data set with Cyberlindnera jadinii it was 8 µg/mL. Besides, the outcome on Albumin was Active. Further, the Ratio was determined as 64 with Proteus vulgaris [7], 4 with Proteus vulgaris [8] and 16 in the data set with Proteus vulgaris [9]. The MIC in the data set on Micrococcus luteus and with Bacillus spizizenii was 8 µg/mL each time.
Turning to `Fc1ccc(CN(CCBr)CCn2nnc3ccccc32)c(F)c1`, the MIC80 in the data set with Saccharomyces cerevisiae was 256 µg/mL (≈ 648 µM); in the data set on Candida it was greater than 512 µg/mL; in the data set on Candida albicans it was greater than 512 µg/mL; against Cyberlindnera jadinii, 256 µg/mL (≈ 648 µM). For the same compound, the MIC against Staphylococcus aureus [1] came to 256 µg/mL (≈ 648 µM); in the data set with Staphylococcus aureus [2], 128 µg/mL (≈ 324 µM); against Proteus vulgaris [3] it was 256 µg/mL (≈ 648 µM); in the data set with Shigella dysenteriae [4], 64 µg/mL (≈ 162 µM); with Escherichia coli, 128 µg/mL (≈ 324 µM); in the data set on Micrococcus luteus it was 256 µg/mL (≈ 648 µM). For the same compound, the figures for the MIC in the data set with Bacillus spizizenii and with Pseudomonas aeruginosa were 256 µg/mL (≈ 648 µM) and 128 µg/mL (≈ 324 µM), respectively.
